We go through 13 compounds from paper PMC4012456 (Marine Drugs, 2014).

One assay concerns the target T1, murine muscle-type nAChR (Mus musculus, UniProt P02716+P04756+P09690+P20782).
T1 construct: expressed in transfected cells; host or cells: Xenopus laevis oocytes injected with plasmid DNA (CMV promoter)
Briefly: electrophysiology on muscle nAChR expressed in Xenopus laevis oocytes. It counts as cell-based. Particulars: for inhibition of agonist-evoked current on muscle nAChR (in words): 10 μM acetylcholine; for reversibility of inhibition of muscle nAChR: wash out.

A further assay deals with L. stagnalis AChBP (Lymnaea stagnalis, UniProt P58154). More on the design: method as in PMID 18338186. Particulars: read-out: Kd, affinity to L. stagnalis AChBP; quenching of intrinsic tryptophan fluorescence; cited from earlier work.
Sequence of L. stagnalis AChBP (P58154 20-229 limits assumed): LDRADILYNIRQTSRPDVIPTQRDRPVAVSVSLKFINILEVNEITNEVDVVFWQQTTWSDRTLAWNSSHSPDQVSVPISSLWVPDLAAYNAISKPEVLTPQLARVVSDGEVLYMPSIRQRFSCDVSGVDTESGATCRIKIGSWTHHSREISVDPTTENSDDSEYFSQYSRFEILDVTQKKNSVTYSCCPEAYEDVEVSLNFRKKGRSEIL
[1] abbreviates: 10 μM compound, Xenopus oocytes.

Counter-ions that a name gives are not always drawn. Like-named read-outs stand apart in the source and are kept apart here.

T1 sequence (P04756 21-457): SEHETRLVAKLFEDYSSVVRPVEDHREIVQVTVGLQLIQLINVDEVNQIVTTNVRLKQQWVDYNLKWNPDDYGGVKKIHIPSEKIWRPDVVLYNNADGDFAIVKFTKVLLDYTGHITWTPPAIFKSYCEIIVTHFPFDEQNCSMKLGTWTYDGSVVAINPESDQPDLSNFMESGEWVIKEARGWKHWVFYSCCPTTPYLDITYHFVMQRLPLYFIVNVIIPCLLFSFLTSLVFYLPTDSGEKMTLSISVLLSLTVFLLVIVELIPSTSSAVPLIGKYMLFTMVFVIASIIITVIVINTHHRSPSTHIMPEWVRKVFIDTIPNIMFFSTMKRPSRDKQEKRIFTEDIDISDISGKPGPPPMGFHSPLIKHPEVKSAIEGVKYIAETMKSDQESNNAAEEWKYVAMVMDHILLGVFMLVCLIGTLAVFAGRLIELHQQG
T1 sequence (P09690 24-501): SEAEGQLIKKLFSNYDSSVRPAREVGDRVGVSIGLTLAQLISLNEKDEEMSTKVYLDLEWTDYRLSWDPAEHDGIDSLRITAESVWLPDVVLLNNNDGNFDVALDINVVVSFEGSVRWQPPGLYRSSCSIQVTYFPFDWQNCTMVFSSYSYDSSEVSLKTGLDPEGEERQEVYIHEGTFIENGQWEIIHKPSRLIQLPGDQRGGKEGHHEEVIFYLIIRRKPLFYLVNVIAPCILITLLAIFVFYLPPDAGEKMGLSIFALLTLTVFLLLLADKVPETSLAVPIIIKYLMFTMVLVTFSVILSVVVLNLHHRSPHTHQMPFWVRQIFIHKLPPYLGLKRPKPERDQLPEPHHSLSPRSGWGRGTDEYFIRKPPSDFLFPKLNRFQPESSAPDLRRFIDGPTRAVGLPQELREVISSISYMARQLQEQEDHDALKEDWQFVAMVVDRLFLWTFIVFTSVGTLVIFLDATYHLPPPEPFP
T1 sequence (P02716 25-520): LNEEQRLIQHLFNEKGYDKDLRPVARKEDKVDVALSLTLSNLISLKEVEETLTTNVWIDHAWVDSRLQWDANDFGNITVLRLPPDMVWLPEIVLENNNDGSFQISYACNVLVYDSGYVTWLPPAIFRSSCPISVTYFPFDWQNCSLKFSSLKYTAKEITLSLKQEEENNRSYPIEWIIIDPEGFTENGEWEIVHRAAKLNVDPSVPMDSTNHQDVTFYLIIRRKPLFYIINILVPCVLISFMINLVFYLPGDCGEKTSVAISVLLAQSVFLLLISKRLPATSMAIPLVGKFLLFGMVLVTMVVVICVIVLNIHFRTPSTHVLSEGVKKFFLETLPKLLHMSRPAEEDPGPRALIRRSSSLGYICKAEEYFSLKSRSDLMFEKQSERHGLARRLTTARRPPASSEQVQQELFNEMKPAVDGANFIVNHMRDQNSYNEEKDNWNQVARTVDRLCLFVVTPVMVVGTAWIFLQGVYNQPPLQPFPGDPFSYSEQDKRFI
T1 sequence (P20782 21-493): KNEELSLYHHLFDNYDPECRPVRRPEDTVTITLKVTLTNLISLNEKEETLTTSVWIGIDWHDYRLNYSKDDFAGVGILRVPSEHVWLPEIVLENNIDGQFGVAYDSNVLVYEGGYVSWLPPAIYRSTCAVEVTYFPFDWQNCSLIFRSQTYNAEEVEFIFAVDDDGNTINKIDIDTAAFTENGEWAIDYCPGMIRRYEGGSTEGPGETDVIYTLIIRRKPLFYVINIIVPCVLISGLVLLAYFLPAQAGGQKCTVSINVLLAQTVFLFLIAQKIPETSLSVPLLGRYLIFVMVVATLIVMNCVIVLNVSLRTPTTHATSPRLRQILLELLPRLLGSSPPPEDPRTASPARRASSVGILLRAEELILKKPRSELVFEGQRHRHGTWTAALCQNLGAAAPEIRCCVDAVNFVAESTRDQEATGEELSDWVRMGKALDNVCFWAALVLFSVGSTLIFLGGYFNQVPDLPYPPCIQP

On to `C[C@@H](N)[C@H](O)CCCCCCCC(=O)CCCCCCCCCCCCCC[C@@H](O[C@@H]1O[C@H](CO)[C@H](O)[C@H](O)[C@H]1O)[C@@H](C)N` [Compound 1, Rhizochalin], for which, at murine muscle-type nAChR (setting [1]), the “inhibition of agonist-evoked current on muscle nAChR (in words)” value (“inhibition of agonist-evoked current” for short) is recorded as “almost completely”. The “reversibility of inhibition of muscle nAChR” value on murine muscle-type nAChR (10 μM compound) was “very slowly reversible”.

As to `C[C@@H](N)[C@H](O)CCCCCCCCCCCCCCC(=O)CCCCCCC[C@@H](O)[C@@H](C)N` [Compound 2, aglycone of rhizochalin], on murine muscle-type nAChR, the midpoint of inhibition, the IC50, lay at 2 ± 0.3 µM. The “inhibition of agonist-evoked current” value at murine muscle-type nAChR (setting [1]) is “almost completely”. For the same compound, the “reversibility of inhibition of muscle nAChR” value on murine muscle-type nAChR (10 μM compound) is on record as “very slowly reversible”.

Turning to `C[C@@H]1C[C@@H]2c3cccc4[nH]c(Br)c(c34)C[C@H]2N(C)C1` [Compound 3, pibocin], the IC50 at murine muscle-type nAChR was 3.7 ± 0.2 µM. Besides, the “inhibition of agonist-evoked current” value at murine muscle-type nAChR (setting [1]) was “moderate activity”.

`COc1cc(CCN)c2c(c1OC)SSSSS2` [Compound 4, Varacin] showed an IC50 on murine muscle-type nAChR of 8.7 ± 0.4 µM. At murine muscle-type nAChR (setting [1]), the “inhibition of agonist-evoked current” value is listed as “moderate activity”.

For the compound `C[N+]1=C2C=C(N)C(=O)c3[nH]cc(c32)CC1` [Compound 5, makaluvamine C], the “inhibition of agonist-evoked current” value on murine muscle-type nAChR (setting [1]) is listed as “weaker but still reproducible effect”.

At murine muscle-type nAChR, `Cn1cc2c3c1C(=O)C(N/C=C/c1ccc(O)cc1)=CC3=[N+](C)CC2` [Compound 6, makaluvamine G] gave an IC50 of 3.3 ± 0.3 µM. On murine muscle-type nAChR (setting [1]), the “inhibition of agonist-evoked current” value is “almost completely”. Besides, at murine muscle-type nAChR (10 μM compound, muscle nAChR), the “receptor recovery time from the end of compound application” value is on record as 5 min. In addition, the “reversibility of inhibition of muscle nAChR” value on murine muscle-type nAChR (10 μM compound) is reported as “fast off-set rate”.

Take `NC1=N/C(=C2/CCNC(=O)c3[nH]ccc32)C(=O)N1` [Compound 7, Debromohymenialdesine]: the “inhibition of agonist-evoked current” value at murine muscle-type nAChR (setting [1]) is “extremely weak, if any, activity”.

Regarding `C[n+]1ccccc1-c1cccc[n+]1C` [Compound 8, 1,1′-Dimethyl-[2,2′]-bipyridyldiium salt], at murine muscle-type nAChR (setting [1]), the “inhibition of agonist-evoked current” value is reported as “extremely weak, if any, activity”.

Regarding `O=C1NCCc2cncn21` [Compound 10, 7,8-Dihydroimidazo-[1,5-c]-pyrimidin-5(6H)-one], at murine muscle-type nAChR (setting [1]), the “inhibition of agonist-evoked current” value is recorded as “extremely weak, if any, activity”.

Take `Cn1c(=N)c2[nH]cnc2n(C)c1=O` [Compound 11, 1,3-Dimethylisoguaniniium hydrochloride]: at murine muscle-type nAChR (setting [1]), the “inhibition of agonist-evoked current” value is “extremely weak, if any, activity”.

In the case of `COc1cc2ccnc3c2c(c1OC)NC=C3` [Compound 12, Aaptamine], on murine muscle-type nAChR (setting [1]), the “inhibition of agonist-evoked current” value is “moderate activity”.

Turning to `CC/C=C/[C@@H]1CC[C@]2(C[C@H]3CC[C@H]4[C@@H](C(=O)OC(CC)CCCCCCCCCCCCC[C@@H]5O[C@](O)(CCN)[C@H](O)N(CCCN)C5=O)[C@@]5(CCC[C@H](C)O5)NC(=N2)N34)O1` (some centres unmarked) [Compound 13, monanchocidin], the “inhibition of agonist-evoked current” value at murine muscle-type nAChR (setting [1]) is given as “almost completely”. Moreover, the “reversibility of inhibition of muscle nAChR” value on murine muscle-type nAChR (10 μM compound) was “very slowly reversible”. Besides, the half-inhibitory concentration (IC50) on murine muscle-type nAChR (read-out: IC50, current inhibition on muscle nAChR, acetylcholine-evoked current (10 μM acetylcholine), Xenopus oocytes) was determined as 4.1 ± 0.6 µM.

On to `CN/C(=N\[N+](=O)[O-])NCc1cnc(Cl)s1` [clothianidin], for which the dissociation constant (Kd) on L. stagnalis AChBP was 7.3 µM.

Usually IC50 stands for the concentration needed to halve the response being measured. As a reminder, the Kd is the constant that tells how readily two partners part at equilibrium.
